Laboratory results from patent publication US20250134874A1, “PHARMACEUTICAL FORMULATIONS COMPRISING 3-({[(4R)-7-{METHYL[4-(PROPAN-2-YL)PHENYL]AMINO}-3,4-DIHYDRO-2H-1-BENZOPYRAN-4-YL]METHYL}AMINO)PYRIDINE-4-CARBOXYLIC ACID” (TACHYON THERAPEUTICS, INC., priority 2021, published 2025).

Tested on: 301 cancer cell lines from different tumor types (OncoPanel; HD Biosciences)
Assay: 2D cell viability inhibition assay (CellTiter-Glo) in cancer cell line panel
Format: cell-based
Parameters: key to AUC: AUC as fraction of the no-inhibition area (dose range × 0–100 % of control)
Conditions: for Emax: in %
Procedure: In a larger screening study, compound 1 was evaluated across a broad cancer cell line panel (OncoPanel; HD Biosciences) composed of 301 cancer cell lines from different tumor types.
2D cell viability inhibition assays were performed in multiwell plates seeded with cells from the panel. After seeding, the plates were cultured overnight in a humidified incubator at 37° C. to promote adherence. Assays were initiated in individual wells by adding either DMSO as a vehicle control, growth media as a blank, or serially diluted compound 1 (10 μM to 0.0005 μM with 1:3 serial dilution). Cultures were incubated for 168 hours after which the number of viable cells in each test well was assessed using the CellTiter-Glo® Luminescent Cell Viability Assay. Luminescence readouts were performed using an EnVision® Multilabel Reader and the compound 1 readouts were normalized to the DMSO control readouts, expressed as a percent of the control. Outliers were flagged out by visual inspection. Percent of control was plotted against the corresponding compound 1 concentration and the absolute IC50 value was determined using four-parameter logistic non-linear regression as the concentration where inhibition was 50% of the control. For maximum inhibition <50%, the absolute IC50 was reported as >10. In addition to EC50 and IC50, AUC was determined and was normalized to the area corresponding to theoretical no-inhibition (the rectangular area defined by the compound dose range and 0 to 100 in y). Emax was recorded as the minimum in y with the compound dose range. For those cell lines where Emax>40, EC50 was manually set to 10 μM. A hierarchical clustering algorithm based on Euclidean distance between the standardized input values and “Ward.D” method as implemented in R hclust function was used to visualize the compound 1 cellular potency data. The sensitive/moderate/resistant calls for each cell line was determined by visually inspecting the resulting clustering dendrogram. All the analyses were done in R Core Team.

CC(C)c1ccc(N(C)c2ccc3c(c2)OCC[C@H]3CNc2cnccc2C(=O)O)cc1 [Compound 1, 3-({[(4R)-7-{methyl[4-(propan-2-yl)phenyl]amino}-3,4-dihydro-2H-1-benzopyran-4-yl]methyl}amino)pyridine-4-carboxylic acid]
AUC (RPMI7951, skin, NS, 168 hours): 0.8067 | AUC (RPMI8226 cell line): 0.4363 | Emax (RPMI8226 cell line): 12.46 | AUC (RT11284 cell line): 0.3717 | AUC (SAOS2, bone, NS, 168 hours): 1.081 | AUC (SCABER cell line): 0.5687 | Emax (SCABER cell line): 32.32 | AUC (SCC4 cell line): 0.4619 | Emax (SCC4 cell line): 26.08 | AUC (SCC9, upper aerodigestive tract, squamous cell carcinoma, 168 hours): 0.9424 | AUC (SCC15, upper aerodigestive tract, squamous cell carcinoma, 168 hours): 0.9489 | AUC (SCC25, upper aerodigestive tract, squamous cell carcinoma, 168 hours): 0.7789 | AUC (SHSY5Y cell line): 0.4927 | Emax (SHSY5Y cell line): 25.04 | AUC (SKBR3 cell line): 0.4396 | Emax (SKBR3 cell line): 26.59 | AUC (SKCO1 cell line): 0.5952 | AUC (SKHEP1, liver, adenocarcinoma, 168 hours): 0.7091 | AUC (SKLU1 cell line): 0.5662 | AUC (SKMEL1 cell line): 0.4427 | Emax (SKMEL1 cell line): 22.0664 | AUC (SKMEL2 cell line): 0.6392 | AUC (SKMEL3 cell line): 0.6207 | AUC (SKMEL5 cell line): 0.4074 | Emax (SKMEL5 cell line): 8.228 | AUC (SKMEL24, skin, NS, 168 hours): 0.7882 | AUC (SKMEL28 cell line): 0.2796 | AUC (SKMEL31, skin, NS, 168 hours): 0.7393 | AUC (SKMES1 cell line): 0.6069 | AUC (SKNSH, autonomic ganglia, NS, 168 hours): 0.7295 | AUC (SKOV3, ovary, adenocarcinoma, 168 hours): 0.9901 | AUC (SNB19 cell line): 0.4677 | Emax (SNB19 cell line): 20.73 | AUC (SNGM cell line): 0.9165 | EC50 (SNGM cell line): 4.14 µM | IC50 (SNGM cell line): 4.9 µM | AUC (SNU5 cell line): 0.6837 | AUC (SNU16 cell line): 0.2821 | AUC (SNU398 cell line): 0.4911 | Emax (SNU398 cell line): 25.8616 | EC50 (SNU668, SNU668 cell line): 0.0128 µM | IC50 (SNU668, SNU668 cell line): 0.0189 µM | AUC (SNU668 cell line): 0.464 | AUC (SNU761 cell line): 0.5814 | EC50 (SNU761 cell line): ≥ 10 µM | IC50 (SNU761 cell line): 0.0397 µM | IC50 (SNU878, SNU878 cell line): > 10 µM | AUC (SNU878 cell line): 0.6648 | AUC (SNU886 cell line): 0.6425 | IC50 (SNU-886, SNU886 cell line): > 10 µM | AUC (SNUC1, large intestine, adenocarcinoma, 168 hours): 0.7478 | AUC (SNUC2A cell line): 0.615 | EC50 (SNUC2A cell line): 0.0245 µM | IC50 (SNUC2A cell line): 0.0525 µM | AUC (SUPT1 cell line): 0.6913 | AUC (SW48 cell line): 0.6038 | AUC (SW480 cell line): 0.409 | Emax (SW480 cell line): 20.36 | IC50 (SW579, 168 h, SW579, thyroid, anaplastic carcinoma, 168 hours): > 10 µM | AUC (SW579, thyroid, anaplastic carcinoma, 168 hours): 0.9203 | AUC (SW620 cell line): 0.4658 | AUC (SW780 cell line): 0.4491 | Emax (SW780 cell line): 13.9761 | AUC (SW837, large intestine, adenocarcinoma, 168 hours): 0.7109 | IC50 (SW1271, 168 h, SW1271, lung, small cell carcinoma, 168 hours): > 10 µM | AUC (SW1271, lung, small cell carcinoma, 168 hours): 0.8179 | AUC (SW1417, large intestine, adenocarcinoma, 168 hours): 0.9634 | AUC (SW1463 cell line): 0.3408 | Emax (SW1463 cell line): 7.126 | AUC (SW1710 cell line): 0.5768 | AUC (SW1990 cell line): 0.6894 | AUC (T24, urinary tract, transitional cell carcinoma, 168 hours): 0.9289 | AUC (T84 cell line): 0.4928 | AUC (T.T cell line): 0.4321 | Emax (T.T cell line): 24.08 | AUC (TALL1 cell line): 0.1999 | AUC (TE1, oesophagus, squamous cell carcinoma, 168 hours): 0.938 | AUC (TE4 cell line): 0.3948 | EC50 (TE4 cell line): 0.00911 µM | IC50 (TE4 cell line): 0.0127 µM | Emax (TE4 cell line): 11.49 | AUC (TE5 cell line): 0.3877 | Emax (TE5 cell line): 15.07 | AUC (TE6 cell line): 0.3625 | Emax (TE6 cell line): 14.02 | AUC (TE8, oesophagus, squamous cell carcinoma, 168 hours): 0.816 | AUC (TE9 cell line): 0.4247 | Emax (TE9 cell line): 25.31 | AUC (TE10 cell line): 0.5293 | Emax (TE10 cell line): 29.65 | AUC (TE11 cell line): 0.304 | AUC (TE14 cell line): 0.3068 | EC50 (TE14 cell line): 0.00232 µM | IC50 (TE14 cell line): 0.00339 µM | AUC (TE15, oesophagus, squamous cell carcinoma, 168 hours): 1.084 | AUC (TF1 cell line): 0.2883 | AUC (THP1 cell line): 0.3371 | AUC (TOV112D cell line): 0.3964 | Emax (TOV112D cell line): 23.19 | AUC (U2OS cell line): 0.4065 | Emax (U2OS cell line): 9.064 | AUC (U87MG cell line): 0.514 | Emax (U87MG cell line): 38.45 | AUC (U937 cell line): 0.1808 | AUC (UACC812, breast, ductal carcinoma, 168 hours): 0.8418 | AUC (UMUC3 cell line): 0.5934 | AUC (VCAP, prostate, adenocarcinoma, 168 hours): 0.7822 | AUC (WM115 cell line): 0.6097 | AUC (WM2664 cell line): 0.5838 | AUC (WSUDLCL2 cell line): 0.2829 | AUC (YD38 cell line): 0.2983 | EC50 (YD38 cell line): 0.00355 µM | IC50 (YD38 cell line): 0.00377 µM
